The values below come from patent publication US20260055097A9, “NRF2 PROTEIN DEGRADERS” (Ganymede Oncology, Inc., priority 2022, published 2026).

The structures appear in SMILES notation.

One experiment has as its system LK-2. The experiment is described as follows: Cancer cell viability, LK-2 (CellTiter-Glo). It is filed as cell-based. Particulars: Homo sapiens, LK-2, 72 h, LK-2 cells, 3 days, read-out: Cellular IC50 (μM) LK-2. The essentials:
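A549 and LK-2 cells were seeded overnight at 20 K/mL and 35 K/mL respectively. They were then exposed for 3 days to nine three-fold dilutions, typically from 30 µM final. Viability was read as CellTiter-Glo luminescence after a 15 min lysis.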
(ATP-based viability assays read luminescence as a measure of living cells.)

For another experiment, the system named is A549. The experiment is described as follows: Cancer cell viability, A549 (CellTiter-Glo). It is filed as cell-based. Particulars: Homo sapiens, 72 h, A549 cells, 3 days, read-out: Cellular IC50 (μM) A549. An outline of the steps:
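A549 and/or LK-2 lung carcinoma cells seeded overnight (20 K/mL A549; 35 K/mL LK-2), then exposed to compound for 3 days. Viability read as CellTiter-Glo luminescence after 15 min lysis; data fitted to curves.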

A word on the IC50: it is the concentration that gives 50% inhibition. On to `Cc1sc(NC(=O)Cc2ccc(F)c(OCCOCCNc3ccc4c(c3)CN(C3CCC(=O)NC3=O)C4=O)c2)nc1-c1ccc2c(c1)CCN2C(=O)c1cncn1C` (stereo not shown) [Cpd. No. 30, 2-(3-(2-(2-((2-(2,6-dioxopiperidin-3-yl)-1-oxoisoindolin-5-yl)amino)ethoxy)ethoxy)-4-fluorophenyl)-N-(5-methyl-4-(1-(1-methyl-1H-imidazole-5-carbonyl)indolin-5-yl)thiazol-2-yl)acetamide], for which the IC50 came to 0.003 µM in the experiment on LK-2 and 0.01 µM with A549.
For `Cc1sc(NC(=O)Cc2cccc(OCCOCCNc3cccc4c3C(=O)N(C3CCC(=O)NC3=O)C4=O)c2)nc1-c1ccc2c(c1)CCN2C(=O)C1CC1` (stereo not shown) [Cpd. No. 34, N-(4-(1-(cyclopropanecarbonyl)indolin-5-yl)-5-methylthiazol-2-yl)-2-(3-(2-(2-((2-(2,6-dioxopiperidin-3-yl)-1,3-dioxoisoindolin-4-yl)amino)ethoxy)ethoxy)phenyl) acetamide], in that order: 0.02 µM and 0.06 µM.
